According to patent US9255100B2 (BAYER INTELLECTUAL PROPERTY GMBH, priority 2010, dated 2016):

target: T1, N-terminally GST-tagged human full length recombinant Mps-1 kinase (Homo sapiens, UniProt P33981); experiment: Mps-1 kinase assay (TR-FRET); type: biochemical; conditions: Mps1 IC50 [nM], 10 μM ATP, 1 μM peptide substrate, 60 min at 22° C.
T1 construct: N-terminally GST-tagged human full length recombinant Mps-1 kinase; purchased Invitrogen, Karslruhe, Germany PV4071
T1 sequence (P33981 1-857): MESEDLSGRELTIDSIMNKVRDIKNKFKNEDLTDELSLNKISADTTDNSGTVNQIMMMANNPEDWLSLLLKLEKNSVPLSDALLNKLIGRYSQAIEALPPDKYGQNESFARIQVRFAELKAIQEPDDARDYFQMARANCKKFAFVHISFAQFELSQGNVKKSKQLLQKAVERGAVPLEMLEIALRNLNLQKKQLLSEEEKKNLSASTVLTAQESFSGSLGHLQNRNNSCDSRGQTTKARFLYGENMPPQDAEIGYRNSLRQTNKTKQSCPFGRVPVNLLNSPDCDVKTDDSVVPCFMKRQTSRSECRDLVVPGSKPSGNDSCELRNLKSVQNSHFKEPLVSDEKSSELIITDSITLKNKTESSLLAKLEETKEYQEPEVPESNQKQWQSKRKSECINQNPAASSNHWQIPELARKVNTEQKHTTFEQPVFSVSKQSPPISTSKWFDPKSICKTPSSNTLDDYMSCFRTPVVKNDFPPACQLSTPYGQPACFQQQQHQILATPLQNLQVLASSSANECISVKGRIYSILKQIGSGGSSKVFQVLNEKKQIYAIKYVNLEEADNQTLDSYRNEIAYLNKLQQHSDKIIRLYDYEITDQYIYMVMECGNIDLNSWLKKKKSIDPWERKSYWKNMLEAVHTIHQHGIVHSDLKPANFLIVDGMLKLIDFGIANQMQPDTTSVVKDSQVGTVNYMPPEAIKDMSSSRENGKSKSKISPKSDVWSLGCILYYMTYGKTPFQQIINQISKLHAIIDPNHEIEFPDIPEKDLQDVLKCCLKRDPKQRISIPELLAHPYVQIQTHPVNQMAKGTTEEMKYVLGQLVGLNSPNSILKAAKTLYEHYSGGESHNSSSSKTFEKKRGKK
Outline: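 TR-FRET signal between a Europium anti-phospho-Ser/Thr antibody and streptavidin-XLent reported phosphorylation of a biotinylated peptide by GST-tagged full-length Mps-1. Enzyme was near 1 nM final, chosen per lot for linearity.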

| IC50 [nM] | Compound |
| --- | --- |
| 0.3 | COc1cccc(Sc2cc(NCC(C)(C)O)c3ncc(-c4ccc(C(=O)NC5CC5)c(C)c4)n3n2)c1 [Example 61B, N-cyclopropyl-4-{8-[(2-hydroxy-2-methylpropyl)amino]-6-[(3-methoxyphenyl)sulfanyl]imidazo[1,2-b]pyridazin-3-yl}-2-methylbenzamide] |
| 21.1 | Cc1cc(-c2cnc3c(NCC(C)(C)O)cc(NC4CCNC4)nn23)ccc1C(=O)NC1CC1 (racemic) [Example 272, (RS)—N-cyclopropyl-4-{8-[(2-hydroxy-2-methylpropyl)amino]-6-(pyrrolidin-3-ylamino)imidazo[1,2-b]pyridazin-3-yl}-2-methylbenzamide] |
| 3.6 | Cc1cc(-c2cnc3c(NCC(C)(C)O)cc(SC4CCOCC4)nn23)ccc1C(=O)NC1CC1 [Example 335, N-cyclopropyl-4-{8-[(2-hydroxy-2-methylpropyl)amino]-6-(tetrahydro-2H-pyran-4-ylsulfanyl)imidazo[1,2-b]pyridazin-3-yl}-2-methylbenzamide] |
| 3.4 | COc1ccccc1Nc1cc(NCC(C)(C)O)c2ncc(-c3ccc(C(=O)NC4CC4)c(C)c3)n2n1 [Example 402, N-cyclopropyl-4-{8-[(2-hydroxy-2-methylpropyl)amino]-6-[(2-methoxyphenyl)amino]imidazo[1,2-b]pyridazin-3-yl}-2-methylbenzamide] |
| 3.2 | COC(C)(C)CNc1cc(-c2ccncc2)nn2c(-c3ccc(C(=O)NC4CC4)c(C)c3)cnc12 [Example 17, N-cyclopropyl-4-{8-[(2-methoxy-2-methylpropyl)amino]-6-(pyridin-4-yl)imidazo[1,2-b]pyridazin-3-yl}-2-methylbenzamide] |
| 0.2 | COc1ccc(Oc2cc(NCCC(F)(F)F)c3ncc(-c4ccc(C(=O)NC5CC5)c(C)c4)n3n2)cc1F [Example 475, N-cyclopropyl-4-{6-(3-fluoro-4-methoxy-phenoxy)-8-[(3,3,3-tri-fluoropropyl)amino]imidazo[1,2-b]pyridazin-3-yl}-2-methylbenzamide] |
| 0.1 | Cc1cc(-c2cnc3c(NCC4COC4)cc(Oc4cccc(F)c4)nn23)ccc1C(=O)NC1CC1 [Example 495, N-cyclopropyl-4-{6-(3-fluoro-phenoxy)-8-[(oxetan-3-ylmethyl)amino]imidazo[1,2-b]pyridazin-3-yl}-2-methylbenzamide] |
| 11.9 | COc1cc(C(=O)NC2CC2)ccc1-c1cnc2c(NCC(C)(C)O)cc(-c3ccc(F)cc3)nn12 [Example 49, N-cyclopropyl-4-{6-(4-fluorophenyl)-8-[(2-hydroxy-2-methylpropyl)amino]imidazo[1,2-b]pyridazin-3-yl}-3-methoxybenzamide] |
| 0.3 | Cc1cc(-c2cnc3c(NCCC(=O)N(C)C)cc(Oc4cccc(F)c4)nn23)ccc1C(=O)NC1CC1 [Example 493, N-cyclopropyl-4-[8-{[3-(dimethyl-amino)-3-oxopropyl]amino}-6-(3-fluorophenoxy)imidazo[1,2-b]pyridazin-3-yl]-2-methyl-benzamide] |
| 0.2 | Cc1cc(-c2cnc3c(NCCC(F)(F)F)cc(Nc4ccc(Cl)c(F)c4)nn23)ccc1C(=O)NC1CC1 [Example 372, 4-{6-[(4-chloro-3-fluorophenyl)amino]-8-[(3,3,3-trifluoropropyl)amino]imidazo[1,2-b]pyridazin-3-yl}-N-cyclopropyl-2-methylbenzamide] |
| 1.3 | Cc1cc(-c2cnc3c(NCC(C)(C)O)cc(Nc4ccccc4CO)nn23)ccc1C(=O)NC1CC1 [Example 434, N-cyclopropyl-4-(6-{[2-(hydroxymethyl)phenyl]amino}-8-[(2-hydroxy-2-methylpropyl)amino]imidazo[1,2-b]pyridazin-3-yl)-2-methylbenzamide] |
| < 0.1 | Cc1cc(-c2cnc3c(NCC(C)(C)O)cc(Sc4cc(F)cc(F)c4)nn23)ccc1C(=O)NC1CC1 [Example 68, N-cyclopropyl-4-{6-[(3,5-difluorophenyl)sulfanyl]-8-[(2-hydroxy-2-methylpropyl)amino]imidazo[1,2-b]pyridazin-3-yl}-2-methylbenzamide] |
| 0.3 | Cc1cc(-c2cnc3c(NCCC(F)(F)F)cc(Oc4ccc(Cl)cc4)nn23)ccc1C(=O)NC1CC1 [Example 267, 4-{6-(4-chlorophenoxy)-8-[(3,3,3-trifluoropropyl)amino]imidazo[1,2-b]pyridazin-3-yl}-N-cyclopropyl-2-methylbenzamide] |
| 0.1 | CNc1cc(Oc2ccc(OC)c(F)c2)nn2c(-c3ccc(C(=O)NC4CC4)c(C)c3)cnc12 [Example 535, N-cyclopropyl-4-[6-(3-fluoro-4-methoxy-phenoxy)-8-(methyl-amino)imidazo[1,2-b]pyridazin-3-yl]-2-methylbenzamide] |
| 6.9 | CCN(CC)CCSc1cc(NCCC(F)(F)F)c2ncc(-c3ccc(C(=O)NC4CC4)c(C)c3)n2n1 [Example 210, N-cyclopropyl-4-(6-{[2-(diethylamino)ethyl]sulfanyl}-8-[(3,3,3-trifluoropropyl)amino]imidazo[1,2-b]pyridazin-3-yl)-2-methylbenzamide] |
| 8 | Cc1cc(-c2cnc3c(NCC(F)(F)F)cc(Oc4cccc(F)c4)nn23)ccc1C(=O)NC1CC1 [Example 514, N-cyclopropyl-4-{6-(3-fluoro-phenoxy)-8-[(2,2,2-trifluoroethyl)amino]imidazo[1,2-b]pyridazin-3-yl}-2-methylbenzamide] |
| 2.7 | CSc1cc(NCC(C)C)c2ncc(-c3ccc(C(=O)NC4CC4)c(C)c3)n2n1 [Example 196, N-cyclopropyl-2-methyl-4-{8-[(2-methylpropyl)amino]-6-(methylsulfanyl)imidazo[1,2-b]pyridazin-3-yl}benzamide] |
| 2.5 | CCNC(=O)c1ccc(-c2cnc3c(NCCN4CCOCC4)cc(Oc4ccc(OC)cc4F)nn23)cc1C [Example 591, N-ethyl-4-[6-(2-fluoro-4-methoxyphenoxy)-8-{[2-(morpholin-4-yl)ethyl]amino}imidazo[1,2-b]pyridazin-3-yl]-2-methylbenzamide] |
| 0.3 | Cc1ccc(Cl)cc1Nc1cc(NCCC(F)(F)F)c2ncc(-c3ccc(C(=O)NC4CC4)c(C)c3)n2n1 [Example 377, 4-{6-[(5-chloro-2-methylphenyl)amino]-8-[(3,3,3-trifluoropropyl)amino]imidazo[1,2-b]pyridazin-3-yl}-N-cyclopropyl-2-methylbenzamide] |
| 1.1 | OCc1cccc(-c2cc(NCCC(F)(F)F)c3ncc(-c4ccc(C(=S)NC5CC5)cc4)n3n2)c1 [Example 46, N-cyclopropyl-4-{6-[3-(hydroxymethyl)phenyl]-8-[(3,3,3-trifluoropropyl)amino]imidazo[1,2-b]pyridazin-3-yl}benzenecarbothioamide] |
| 0.1 | Cc1cc(-c2cnc3c(NCCCN4CCOCC4)cc(Oc4cccc(F)c4)nn23)ccc1C(=O)NC1CC1 [Example 506, N-cyclopropyl-4-[6-(3-fluoro-phenoxy)-8-{[3-(morpholin-4-yl)propyl]amino}imidazo[1,2-b]pyridazin-3-yl]-2-methyl-benzamide] |
| 0.2 | Cc1cc(-c2cnc3c(NCCCS(C)(=O)=O)cc(Oc4cccc(F)c4)nn23)ccc1C(=O)NC1CC1 [Example 508, N-cyclopropyl-4-[6-(3-fluoro-phenoxy)-8-{[3-(methylsulfonyl)propyl]amino}imidazo[1,2-b]pyridazin-3-yl]-2-methyl-benzamide] |
| 0.3 | Cc1cc(-c2cnc3c(NCCC(F)(F)F)cc(Nc4cccc(F)c4)nn23)ccc1C(=O)NC1CC1 [Example 324, N-cyclopropyl-4-{6-[(3-fluorophenyl)amino]-8-[(3,3,3-trifluoropropyl)amino]imidazo[1,2-b]pyridazin-3-yl}-2-methyl-benzamide] |
| 0.2 | Cc1cc(-c2cnc3c(NCCC(F)(F)F)cc(Sc4cccc(F)c4F)nn23)ccc1C(=O)NC1CC1 [Example 252, N-cyclopropyl-4-{6-[(2,3-difluorophenyl)sulfanyl]-8-[(3,3,3-trifluoropropyl)amino]imidazo[1,2-b]pyridazin-3-yl}-2-methylbenzamide] |
| 2.1 | Cc1cc(-c2cnc3c(NCC(C)(C)O)cc(-c4ccccc4CF)nn23)ccc1C(=O)NC1CC1 [Example 222, N-cyclopropyl-4-{6-[2-(fluoromethyl)phenyl]-8-[(2-hydroxy-2-methylpropyl)amino]imidazo[1,2-b]pyridazin-3-yl}-2-methylbenzamide] |
| 3.4 | Cc1cc(-c2cnc3c(NCC(C)(C)O)cc(O/C=C(/F)C(F)(F)CO)nn23)ccc1C(=O)NC1CC1 [Example 241B, N-cyclopropyl-4-(8-[(2-hydroxy-2-methylpropyl)amino]-6-{[(1E)-2,3,3-trifluoro-4-hydroxybut-1-en-1-yl]oxy}imidazo[1,2-b]pyridazin-3-yl)-2-methylbenzamide] |
